Drawing on PubChem BioAssay AID1259407 (Chemical Carcinogenesis Research Information System (CCRIS), 2018), this text covers mutagenic call for 5 compounds.

Calls of active or inactive are those of the source. The rule behind the calls is not given here.

The series concerns CCRIS mutagenicity, Ames/micronucleus/aberration tests. Nature of the series: CCRIS mutagenicity studies. To be noted: Test System: AMES SALMONELLA TYPHIMURIUM
The mark [1] stands for this setting: Strain/Indicator: TA98, Metabolic Activation: NONE, Method: STANDARD PLATE.
The mark [2] stands for this setting: Strain/Indicator: TA98, Metabolic Activation: RAT, LIVER, S-9, AROCLOR 1254, Method: STANDARD PLATE.
Setting [3] is: Strain/Indicator: TA100, Metabolic Activation: NONE, Method: STANDARD PLATE.
Where [4] appears, read: Strain/Indicator: TA100, Metabolic Activation: RAT, LIVER, S-9, AROCLOR 1254, Method: STANDARD PLATE.
[5] abbreviates: Strain/Indicator: TA102, Metabolic Activation: NONE, Method: STANDARD PLATE.

For the compound `O=C1CNC(=O)N1`, the mutagenic call was “inactive; negative” (Strain/Indicator: TA97, Metabolic Activation: NONE, Method: STANDARD PLATE); “inactive; negative” (Strain/Indicator: TA97, Metabolic Activation: RAT, LIVER, S-9, AROCLOR 1254, Method: STANDARD PLATE); “inactive; negative” under setting [1]; “inactive; negative” under setting [2]; “inactive; negative” under setting [3]; “inactive; negative” under setting [4]. Moreover, the mutagenic call is “inactive; negative” under setting [5] and “inactive; negative” (Strain/Indicator: TA102, Metabolic Activation: RAT, LIVER, S-9, AROCLOR 1254, Method: STANDARD PLATE).

On to `CC(C)CNCC(C)C`, for which the mutagenic call reads like this: (Strain/Indicator: TA98, Metabolic Activation: HAMSTER, LIVER, S-9, AROCLOR 1254 (10%), Method: PREINCUBATION) “inactive; negative”; (Strain/Indicator: TA98, Metabolic Activation: NONE, Method: PREINCUBATION) “inactive; negative”; (Strain/Indicator: TA98, Metabolic Activation: RAT, LIVER, S-9, AROCLOR 1254 (10%), Method: PREINCUBATION) “inactive; negative”; (Strain/Indicator: TA100, Metabolic Activation: HAMSTER, LIVER, S-9, AROCLOR 1254 (10%), Method: PREINCUBATION) “inactive; negative”; (Strain/Indicator: TA100, Metabolic Activation: NONE, Method: PREINCUBATION) “inactive; negative”; (Strain/Indicator: TA100, Metabolic Activation: RAT, LIVER, S-9, AROCLOR 1254 (10%), Method: PREINCUBATION) “inactive; negative”. In addition, the mutagenic call reads like this: (Strain/Indicator: TA1535, Metabolic Activation: HAMSTER, LIVER, S-9, AROCLOR 1254 (10%), Method: PREINCUBATION) “inactive; negative”; (Strain/Indicator: TA1535, Metabolic Activation: NONE, Method: PREINCUBATION) “inactive; negative”; (Strain/Indicator: TA1535, Metabolic Activation: RAT, LIVER, S-9, AROCLOR 1254 (10%), Method: PREINCUBATION) “inactive; negative”; (Strain/Indicator: TA1537, Metabolic Activation: HAMSTER, LIVER, S-9, AROCLOR 1254 (10%), Method: PREINCUBATION) “inactive; negative”; (Strain/Indicator: TA1537, Metabolic Activation: NONE, Method: PREINCUBATION) “inactive; negative”; (Strain/Indicator: TA1537, Metabolic Activation: RAT, LIVER, S-9, AROCLOR 1254 (10%), Method: PREINCUBATION) “inactive; negative”.

On to `Cc1ccc(C)c(C)c1C`, for which the mutagenic call was “inactive; negative” (Strain/Indicator: TA97A, Metabolic Activation: NONE, Method: STANDARD PLATE); “inactive; negative” (Strain/Indicator: TA97A, Metabolic Activation: RAT LIVER S-9, AROCLOR 1254, Method: STANDARD PLATE); “inactive; negative” under setting [1]; “inactive; negative” (Strain/Indicator: TA98, Metabolic Activation: RAT LIVER S-9, AROCLOR 1254, Method: STANDARD PLATE); “inactive; negative” under setting [3]; “inactive; negative” (Strain/Indicator: TA100, Metabolic Activation: RAT LIVER S-9, AROCLOR 1254, Method: STANDARD PLATE). The mutagenic call was “inactive; negative” under setting [5] and “inactive; negative” (Strain/Indicator: TA102, Metabolic Activation: RAT LIVER S-9, AROCLOR 1254, Method: STANDARD PLATE).

`C[C@]12CC[C@H](OC(=O)COc3ccc(N(CCCl)CCCl)cc3)C[C@@H]1CC[C@@H]1[C@@H]2CC[C@]2(C)NC(=O)CC[C@@H]12`: the mutagenic call is, setting by setting: under setting [1], “inactive; negative”; under setting [2], “inactive; negative”; under setting [3], “active; positive”; under setting [4], “active; positive”; (Strain/Indicator: TA1535, Metabolic Activation: NONE, Method: STANDARD PLATE) “active; positive”; (Strain/Indicator: TA1535, Metabolic Activation: RAT, LIVER, S-9, AROCLOR 1254, Method: STANDARD PLATE) “active; positive”. Also, the mutagenic call runs as follows: (Strain/Indicator: TA1535, Metabolic Activation: S-9, Method: STANDARD PLATE) “active; positive”; (Strain/Indicator: TA1537, Metabolic Activation: NONE, Method: STANDARD PLATE) “inactive; negative”; (Strain/Indicator: TA1537, Metabolic Activation: RAT, LIVER, S-9, AROCLOR 1254, Method: STANDARD PLATE) “inactive; negative”; (Strain/Indicator: TA1537, Metabolic Activation: S-9, Method: STANDARD PLATE) “inactive; negative”.

As for `Oc1cccc2c1ccc1[nH]c3ccc4ccccc4c3c12`, the mutagenic call is, setting by setting: under setting [1], “active; positive”; (Strain/Indicator: TA98, Metabolic Activation: RAT, LIVER, S-9, 3-METHYLCHOLANTHRENE, Method: STANDARD PLATE) “active; positive”; under setting [3], “active; positive”; (Strain/Indicator: TA100, Metabolic Activation: RAT, LIVER, S-9, 3-METHYLCHOLANTHRENE, Method: STANDARD PLATE) “active; positive”; (Strain/Indicator: TM677, Metabolic Activation: NONE, Method: PREINCUBATION) “inactive; negative”; (Strain/Indicator: TM677, Metabolic Activation: RAT, LIVER, S-9, 3-METHYLCHOLANTHRENE (10%), Method: PREINCUBATION) “active; positive”. Moreover, for the setting “Strain/Indicator: TM677, Metabolic Activation: RAT, LIVER, S-9, AROCLOR 1254 (10%), Method: PREINCUBATION”, the mutagenic call is “active; positive”.
